The numbers were not newly measured in patent publication US12576169B2, “Silicon-fluoride acceptor substituted radiopharmaceuticals and precursors thereof” (Technische Universität München, priority 2019, dated 2026), which cites them from elsewhere.

Series [1] deals with T1, PSMA (Homo sapiens, UniProt Q04609). Particulars: PSMA binding affinity; literature; cited from earlier work.
For series [2] the following is noted: radiolabeled established inhibitors; literature; cited from earlier work.
Series [3] has as its target T1, PSMA. Particulars: after 1 h; literature; cited from earlier work.
The conditions of series [4]: Wangler et al. 2010; cited from earlier work.

T1 sequence (Q04609 whole entry): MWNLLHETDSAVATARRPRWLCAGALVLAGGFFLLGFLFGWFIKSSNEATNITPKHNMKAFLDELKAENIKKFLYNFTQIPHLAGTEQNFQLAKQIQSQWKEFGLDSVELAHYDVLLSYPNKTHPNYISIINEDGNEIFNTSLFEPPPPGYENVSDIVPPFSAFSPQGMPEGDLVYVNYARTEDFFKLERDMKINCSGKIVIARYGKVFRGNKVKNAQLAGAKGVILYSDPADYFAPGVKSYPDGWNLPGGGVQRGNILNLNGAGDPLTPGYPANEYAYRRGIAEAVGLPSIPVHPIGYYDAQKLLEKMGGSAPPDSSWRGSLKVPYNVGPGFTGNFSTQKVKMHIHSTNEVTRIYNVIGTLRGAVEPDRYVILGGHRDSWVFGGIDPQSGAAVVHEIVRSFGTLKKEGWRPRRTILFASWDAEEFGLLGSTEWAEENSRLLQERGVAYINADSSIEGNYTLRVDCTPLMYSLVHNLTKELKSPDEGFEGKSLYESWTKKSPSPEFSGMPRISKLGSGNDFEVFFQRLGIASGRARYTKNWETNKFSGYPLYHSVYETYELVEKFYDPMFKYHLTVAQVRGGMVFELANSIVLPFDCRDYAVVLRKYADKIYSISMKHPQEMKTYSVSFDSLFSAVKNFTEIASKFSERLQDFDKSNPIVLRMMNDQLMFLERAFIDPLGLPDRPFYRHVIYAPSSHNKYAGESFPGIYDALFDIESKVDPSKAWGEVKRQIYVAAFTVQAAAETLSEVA

For orientation: IC50 means the concentration that inhibits the measured activity by half. As for `O=C([O-])CN(CCN(CC(=O)[O-])Cc1cc(CCC(=O)NCCCCCC(=O)NCCCC[C@H](NC(=O)N[C@@H](CCC(=O)O)C(=O)O)C(=O)O)ccc1[O-])Cc1cc(CCC(=O)O)ccc1[O-].[68Ga+3].[OH3+]` [[^natGa/^68Ga]PSMA-11, PSMA-11], the IC50 on PSMA [1] was 6.1 ± 0.8 nM. In addition, in series [2], the “logP(o/w)” value was −4.1 ± 0.1. The “Internalization (1 h)” value on PSMA [3] is given as 91.1 ± 1.7.
With PSMA I&T [[^natGa/^68Ga]PSMA I&T], the IC50 on PSMA [1] is 9.3 ± 3.3 nM. In series [2], the “logP(o/w)” value was −4.3 ± 0.3. Besides, at PSMA [3], the “Internalization (1 h)” value was 59.2 ± 1.7.
SiFA-Asn(AcNH-β-Glc)-Tyr^3-octreotate: in series [4], the “log P(ow)” value was 1.23.
